Results published in patent US20260130395A1, “Water Dispersible Botanical Compositions” (Aquila Black Limited, priority 2021, published 2026).

Test: Stability of cannabinoid compounds and Vitamin E components in Beverage 2 (AB Red) by LCMSMS
Type: physicochemical

Which results are given for `CCCCCc1cc(O)c(C/C=C(\C)CCC=C(C)C)c(O)c1` [CBG, cannabigerol]?
Stability of Plant-Derived Cannabinoid Compounds in AB Red (stored at 8° C., 0 days): 4.75 µg/mL; Stability of Plant-Derived Cannabinoid Compounds in AB Red (stored at 8° C., 1 days): 4.62 µg/mL; Stability of Plant-Derived Cannabinoid Compounds in AB Red (stored at 8° C., 2 days): 4.79 µg/mL; Stability of Plant-Derived Cannabinoid Compounds in AB Red (stored at 8° C., 3 days): 4.70 µg/mL; Stability of Plant-Derived Cannabinoid Compounds in AB Red (stored at 8° C., 5 days): 4.75 µg/mL; Stability of Plant-Derived Cannabinoid Compounds in AB Red (stored at 8° C., 8 days): 4.76 µg/mL; Stability of Plant-Derived Cannabinoid Compounds in AB Red (stored at 8° C., 9 days): 4.72 µg/mL; Stability of Plant-Derived Cannabinoid Compounds in AB Red (stored at 8° C., 10 days): 4.68 µg/mL; Stability of Plant-Derived Cannabinoid Compounds in AB Red (stored at 8° C., 11 days): 4.77 µg/mL; Stability of Plant-Derived Cannabinoid Compounds in AB Red (stored at 8° C., 12 days): 4.64 µg/mL; Stability of Plant-Derived Cannabinoid Compounds in AB Red (stored at 8° C., 15 days): 4.68 µg/mL; Stability of Plant-Derived Cannabinoid Compounds in AB Red (stored at 8° C., 16 days): 4.65 µg/mL; Stability of Plant-Derived Cannabinoid Compounds in AB Red (stored at 8° C., 17 days): 4.77 µg/mL; Stability of Plant-Derived Cannabinoid Compounds in AB Red (stored at 8° C., 18 days): 4.67 µg/mL; Stability of Plant-Derived Cannabinoid Compounds in AB Red (stored at 8° C., 19 days): 4.71 µg/mL; Stability of Plant-Derived Cannabinoid Compounds in AB Red (stored at 8° C., 22 days): 4.70 µg/mL; Stability of Plant-Derived Cannabinoid Compounds in AB Red (stored at 8° C., 23 days): 4.66 µg/mL; Stability of Plant-Derived Cannabinoid Compounds in AB Red (stored at 8° C., 24 days): 4.65 µg/mL; Stability of Plant-Derived Cannabinoid Compounds in AB Red (stored at 8° C., 25 days): 4.73 µg/mL; Stability of Plant-Derived Cannabinoid Compounds in AB Red (stored at 8° C., 26 days): 4.68 µg/mL; Stability of Plant-Derived Cannabinoid Compounds in AB Red (stored at 8° C., 29 days): 4.80 µg/mL; Stability of Plant-Derived Cannabinoid Compounds in AB Red (stored at 8° C., 30 days): 4.72 µg/mL; Stability of Plant-Derived Cannabinoid Compounds in AB Red (stored at 8° C., 60 days): 4.70 µg/mL; Stability of Plant-Derived Cannabinoid Compounds in AB Red (stored at 8° C., 90 days): 4.73 µg/mL; Stability of Plant-Derived Cannabinoid Compounds in AB Red (stored at 8° C., 120 days): 4.68 µg/mL; Stability of Plant-Derived Cannabinoid Compounds in AB Red (stored at 8° C., 150 days): 4.67 µg/mL; Stability of Plant-Derived Cannabinoid Compounds in AB Red (stored at 8° C., 180 days): 4.65 µg/mL; Stability of Plant-Derived Cannabinoid Compounds in AB Red (stored at 8° C., 210 days): 4.60 µg/mL; Stability of Plant-Derived Cannabinoid Compounds in AB Red (stored at 8° C., 240 days): 4.68 µg/mL; Stability of Plant-Derived Cannabinoid Compounds in AB Red (stored at 8° C., 270 days): 4.66 µg/mL; Stability of Plant-Derived Cannabinoid Compounds in AB Red (stored at 8° C., 300 days): 4.70 µg/mL; Stability of Plant-Derived Cannabinoid Compounds in AB Red (stored at 8° C., 330 days): 4.60 µg/mL; Stability of Plant-Derived Cannabinoid Compounds in AB Red (stored at 8° C., 360 days): 4.63 µg/mL; Stability of Plant-Derived Cannabinoid Compounds in AB Red (stored at 8° C., 390 days): 4.55 µg/mL; Stability of Plant-Derived Cannabinoid Compounds in AB Red (stored at 8° C., 420 days): 4.58 µg/mL; Stability of Plant-Derived Cannabinoid Compounds in AB Red (stored at 8° C., 450 days): 4.54 µg/mL; Stability of Plant-Derived Cannabinoid Compounds in AB Red (stored at 8° C., 480 days): 4.51 µg/mL; Stability of Plant-Derived Cannabinoid Compounds in AB Red (stored at 8° C., 510 days): 4.40 µg/mL; Stability of Plant-Derived Cannabinoid Compounds in AB Red (stored at 8° C., 540 days): 4.42 µg/mL; Stability of Plant-Derived Cannabinoid Compounds in AB Red (stored at 8° C., 570 days): 4.37 µg/mL; Stability of Plant-Derived Cannabinoid Compounds in AB Red (stored at 21-25° C., 0 days): 4.75 µg/mL; Stability of Plant-Derived Cannabinoid Compounds in AB Red (stored at 21-25° C., 1 days): 4.57 µg/mL; Stability of Plant-Derived Cannabinoid Compounds in AB Red (stored at 21-25° C., 2 days): 4.61 µg/mL; Stability of Plant-Derived Cannabinoid Compounds in AB Red (stored at 21-25° C., 3 days): 4.71 µg/mL; Stability of Plant-Derived Cannabinoid Compounds in AB Red (stored at 21-25° C., 5 days): 4.66 µg/mL; Stability of Plant-Derived Cannabinoid Compounds in AB Red (stored at 21-25° C., 8 days): 4.66 µg/mL; Stability of Plant-Derived Cannabinoid Compounds in AB Red (stored at 21-25° C., 9 days): 4.74 µg/mL; Stability of Plant-Derived Cannabinoid Compounds in AB Red (stored at 21-25° C., 10 days): 4.59 µg/mL; Stability of Plant-Derived Cannabinoid Compounds in AB Red (stored at 21-25° C., 11 days): 4.72 µg/mL; Stability of Plant-Derived Cannabinoid Compounds in AB Red (stored at 21-25° C., 12 days): 4.62 µg/mL; Stability of Plant-Derived Cannabinoid Compounds in AB Red (stored at 21-25° C., 15 days): 4.80 µg/mL; Stability of Plant-Derived Cannabinoid Compounds in AB Red (stored at 21-25° C., 16 days): 4.75 µg/mL; Stability of Plant-Derived Cannabinoid Compounds in AB Red (stored at 21-25° C., 17 days): 4.63 µg/mL; Stability of Plant-Derived Cannabinoid Compounds in AB Red (stored at 21-25° C., 18 days): 4.70 µg/mL; Stability of Plant-Derived Cannabinoid Compounds in AB Red (stored at 21-25° C., 19 days): 4.66 µg/mL; Stability of Plant-Derived Cannabinoid Compounds in AB Red (stored at 21-25° C., 22 days): 4.71 µg/mL; Stability of Plant-Derived Cannabinoid Compounds in AB Red (stored at 21-25° C., 23 days): 4.67 µg/mL; Stability of Plant-Derived Cannabinoid Compounds in AB Red (stored at 21-25° C., 24 days): 4.78 µg/mL; Stability of Plant-Derived Cannabinoid Compounds in AB Red (stored at 21-25° C., 25 days): 4.56 µg/mL; Stability of Plant-Derived Cannabinoid Compounds in AB Red (stored at 21-25° C., 26 days): 4.77 µg/mL; Stability of Plant-Derived Cannabinoid Compounds in AB Red (stored at 21-25° C., 29 days): 4.78 µg/mL; Stability of Plant-Derived Cannabinoid Compounds in AB Red (stored at 21-25° C., 30 days): 4.73 µg/mL; Stability of Plant-Derived Cannabinoid Compounds in AB Red (stored at 21-25° C., 60 days): 4.61 µg/mL; Stability of Plant-Derived Cannabinoid Compounds in AB Red (stored at 21-25° C., 90 days): 4.55 µg/mL; Stability of Plant-Derived Cannabinoid Compounds in AB Red (stored at 21-25° C., 120 days): 4.61 µg/mL; Stability of Plant-Derived Cannabinoid Compounds in AB Red (stored at 21-25° C., 150 days): 4.65 µg/mL; Stability of Plant-Derived Cannabinoid Compounds in AB Red (stored at 21-25° C., 180 days): 4.53 µg/mL; Stability of Plant-Derived Cannabinoid Compounds in AB Red (stored at 21-25° C., 210 days): 4.63 µg/mL; Stability of Plant-Derived Cannabinoid Compounds in AB Red (stored at 21-25° C., 240 days): 4.56 µg/mL; Stability of Plant-Derived Cannabinoid Compounds in AB Red (stored at 21-25° C., 270 days): 4.68 µg/mL; Stability of Plant-Derived Cannabinoid Compounds in AB Red (stored at 21-25° C., 300 days): 4.47 µg/mL; Stability of Plant-Derived Cannabinoid Compounds in AB Red (stored at 21-25° C., 330 days): 4.57 µg/mL; Stability of Plant-Derived Cannabinoid Compounds in AB Red (stored at 21-25° C., 360 days): 4.47 µg/mL; Stability of Plant-Derived Cannabinoid Compounds in AB Red (stored at 21-25° C., 390 days): 4.57 µg/mL; Stability of Plant-Derived Cannabinoid Compounds in AB Red (stored at 21-25° C., 420 days): 4.51 µg/mL; Stability of Plant-Derived Cannabinoid Compounds in AB Red (stored at 21-25° C., 450 days): 4.63 µg/mL; Stability of Plant-Derived Cannabinoid Compounds in AB Red (stored at 21-25° C., 480 days): 4.44 µg/mL; Stability of Plant-Derived Cannabinoid Compounds in AB Red (stored at 21-25° C., 510 days): 4.37 µg/mL; Stability of Plant-Derived Cannabinoid Compounds in AB Red (stored at 21-25° C., 540 days): 4.49 µg/mL; Stability of Plant-Derived Cannabinoid Compounds in AB Red (stored at 21-25° C., 570 days): 4.36 µg/mL
